Measured values reported in patent publication US20050256179A1, “Selective pharmacologic inhibition of protein trafficking and related methods of treating human diseases” (priority 2003, published 2005).

Key:
Type in all cases: cell-based
[1] = test system: calnexin; assay: Calnexin expression by Western blotting (control)
Procedure: (§1) The culture medium was removed by vacuuming (for attached cells) or by low speed centrifugation (for suspension cells) for 5-7 minutes at room temperature. The cells were wasedh twith PBS, spun at 1200 rpm and the cell pellets were kept on ice. 300 μl/2.0×10^7 cells of ice cold lysis buffer was added with freshly added protease inhibitors. Cell pellets were gently resuspended and incubated on ice for at least 30 min, vortexed a few times during incubation. Cell lysate was spun at 14,000 rpm for 2-5 min at 4° C. The supernatant was transferred to a new microfuge tube and the pellet was discarded. An aliquot of sample was mixed with an equal volume of 2× sample buffer (InVitrogen), and stored at −80° C. Protein concentration was determined by using “BCA protein assay reagent kit” from Pierce.
(§2) Protein samples (in sample buffer) were boiled for 1-3 minutes and put on ice. Same amount of protein were loaded on the NuPage gel (InVitrogen). […]
(§3) To further examine the putative protein trafficking effects of AVP 893, other proteins in this pathway were tested in vitro in B16 and other cell lines. […] Other cell lines were tested for their expression of GS28 and nicastrin and found to respond similarly to drug, although quantitative differences were evident. […]

[2] = test system: nicastrin; assay: Nicastrin expression/maturation by Western blotting
Procedure: as §1, §2, §3

[3] = test system: Rab6; assay: Rab6 expression

Structure (SMILES): O=C(Nc1ccc(-c2nc3cc(NC(=O)C4CCCCC4)ccc3[nH]2)cc1)C1CCCCC1 [AVP 893]
- levels of calnexin ([1]; drug-treated cell lines): unchanged
- calnexin expression ([1]; stimulated BALB/c spleen cells, 100 ng/ml, 20 hours): minimally affected
- IC50 for mature nicastrin expression ([2]; 3T3 cells, overnight): 10 and 100 ng/ml
- levels of mature nicastrin ([2]; 3T3 fibroblast cell line): virtually eliminated
- Rab6 expression ([3]; 3T3 and PMA/ionomycin-stimulated spleen cells, overnight): suppressed Rab6 expression
- Rab6 staining ([3]; immunocytochemistry, even after 18 hrs): not diminished nor significantly altered
